Measurements from patent publication US20230233671A1, “RNA MOLECULES” (Pfizer Inc., priority 2021, published 2023).

Tested on: VZV gE
Assay: ICS assay of gE peptide-stimulated splenocytes from LAV-experienced C57BL/6 mice
Type: in vivo
Conditions: for IFN-γ+ CD4+ T cell: percentage within CD4+ T cells; for IFN-γ+ CD8+ T cell: percentage within CD8+ T cells; for gE-specific IFN-γ+ CD8+ T cell response induced or not: FIG. 26C; for gE-specific IFN-γ+ CD8+ T-cell response, increase after second/boost dose: FIG. 27B
Description: Splenocytes were harvested from Balb/c mice on Day 34, (34 days after immunization, 6 days after boost) to assess gE-specific T cell responses induced. An Intracellular Cytokine Staining (ICS) assay was used to detect the presence of cytokines within CD4^+ or CD8^+ T cells following antigen peptide stimulation. ICS assay can detect multiple cytokines, including IFN-γ, produced in both CD4^+ and CD8^+ T cells following antigen peptide stimulation. During the ex vivo stimulation of splenocytes, reagents to block protein secretion are added to retain the synthesized cytokine to allow their detection by intracellular staining. Following stimulation, cells are stained for surface and intracellular markers to identify T cell types (CD3^+ cells for CD4 and CD8 T cells), activation markers (CD154/CD40L) and cytokines. CD4^+ T cells expressing IFN-γ, IL-2, TNFα and CD40L, and CD8^+ T cells expressing IFN-γ were assessed to evaluate gE-specific T cells.
2×10^6 splenocytes were stimulated with a 2 μg/mL gE peptide pool mix, a mix of 10 ng/ml phorbol myristate acetate (PMA) and 1 μg/mL ionomycin (positive control), or DMSO (negative control). BD GOLGISTOP™ and BD GOLGIPLUG™ were added to block protein secretion. Following incubation for 6 hours at 37° C., cells were stained for viability (10 min at 25° C.) and extracellular markers with directly labelled antibodies (20 min at 25° C.). Cells were fixed and permeabilized with BD CYTOFIX/CYTOPERM™ solution. Intracellular staining for cytokines (IFN-γ, IL-2, TNFα) and activation markers (CD154/CD40L) was performed in BD CYTOFIX/CYTOPERM™ solution (30 min at 25° C.). Cells were washed, resuspended in 2% FBS/PBS buffer and acquired on an LSRFORTESSA™. Data were analyzed by FlowJo 10.7.1. Results shown are background (media-DMSO) subtracted.
VZV RNA-LNP vaccines were tested for their ability to induce IgG and T cell responses in C57BL/6 mice. 15 mice per group were immunized in accordance with the schedule and specification in Table 11. Briefly, 10 or 15 mice per group were primed subcutaneously (SQ) on Day 0 with a live-attenuated varicella (LAV) vaccine (VARIVAX®, Merck) using a full human dose per mouse (1350 pfu), immunized intramuscularly (IM) on Day 35 day and boosted on Day 63. The “infection” with a LAV vaccine mimics exposure to VZV that humans receive when infected with VZV as children and develop chickenpox.
Mice immunized with SHINGRIX® received 1, 2.5, or 5 μg, corresponding to 1/50, 1/20, and 1/10 of the human clinical dose, respectively; mice immunized with gE_WT CO2 received 0.5 or 1 μg VZV RNA-LNP; mice immunized with ms5 CO1 received 0.5 or 1 ug VZV RNA-LNP; mice immunized with ms6 CO2 received 0.5 or 1 ug VZV RNA-LNP; and mice immunized with lyophilized gE_WT CO2 received 0.5 or 1 ug VZV RNA-LNP. Saline was administered on Day 35 and 63 to a negative control group. Sera was collected from mice on Day 35, 63 and 76 for characterization of VZV gE-binding IgG levels (LUMINEX® analyses). Spleens were harvested on Day 48 (13 days post dose 1 for selected groups) and Day 76 for cellular analysis (T cell and B cell responses).
Vaccine-induced T cell response was measured following ex vivo stimulation of splenocytes with gE peptide pool (2 μg/mL of each peptide) by ELISpot and Intracellular Cytokine Staining (ICS) assay (described herein). For ELISpot, the cytokine IFN-γ secreted by activated T cells were captured by an anti-IFN-γ antibody coated onto the polyvinylidene fluoride (PVDF) membrane of the well bottom on a microplate. The captured IFN-γ was developed into a spot by another non-competing biotinylated anti-IFN-γ secondary antibody followed by an enzymatic color reaction using streptavidin-alkaline phosphatase (ALP) conjugate and the substrate solution, nitro-blue tetrazolium and 5-bromo-4-chloro-3′-indolyphosphate (BCIP/NBT-plus) that yielded a dark purple precipitate or spot. […]

[1] = Day 48 (13 days post dose 1), 1 μg IM Day 35
[2] = Day 76 (13 days post dose 2/boost), 1 μg IM Days 35 and 63
[3] = Day 76 (13 days post dose 2/boost)

Row | Substance | IFN-γ+ CD4+ T cell [1] [%] | IFN-γ+ CD8+ T cell [1] [%] | gE-specific IFN-γ+ CD8+ T cell response induced or not (Day 48 (13 days post dose 1)) | IFN-γ+ CD4+ T cell [2] [%] | IFN-γ+ CD8+ T cell [2] [%] | gE-specific IFN-γ+ CD8+ T-cell response, increase after second/boost dose [3]
1 | ms5 CO1: modRNA construct, ORF SEQ ID NO: 153, VZV gE with deletion of aa 582-623 | 0.47 | 0.05 | induced | 0.48 | 0.28 | robust increase
2 | ms6 CO2: modRNA construct, ORF SEQ ID NO: 157, VZV gE with deletion of aa 539-623, secreted | 0.09 | 0.16 | induced | 0.50 | 0.21 | robust increase
